As usually defined, the IC50 is the point on the concentration scale where inhibition reaches its midpoint.

The target of one test is T1, human CSNK1D (Homo sapiens, UniProt P48730).
T1 construct: expressed in transfected cells
Nature of the test: Whole Cell nBRET CSNK1D Binding Assay. Conditions: living CHO cells stably expressing human CSNK1D tagged with nanoluciferase; NanoBret tracer 130 nM; 2 hours at 37 C.

Test [1] concerns the target T2, human recombinant GST cleaved CSNK1D (Homo sapiens, UniProt P48730).
T2 construct: GST (cleaved yes); purchased University of Dundee clone DU 19064
Nature of the test: Purified Enzyme Assay (ADP-Glo CSNK1D Kinase Assay). It is filed as biochemical. The following applies: 2 nM CSNK1D; peptide substrate 150 μM; ATP 20 μM; 45 minutes at room temperature. In outline:
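GST-cleaved human recombinant CSNK1D phosphorylates peptide PLSRTL-pS-VASLPGL with ATP; compounds added in dose-response, 45 min at room temperature. ADP formed measured by ADP-Glo luminescence and converted to percent activity.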

T1 sequence (P48730 whole entry): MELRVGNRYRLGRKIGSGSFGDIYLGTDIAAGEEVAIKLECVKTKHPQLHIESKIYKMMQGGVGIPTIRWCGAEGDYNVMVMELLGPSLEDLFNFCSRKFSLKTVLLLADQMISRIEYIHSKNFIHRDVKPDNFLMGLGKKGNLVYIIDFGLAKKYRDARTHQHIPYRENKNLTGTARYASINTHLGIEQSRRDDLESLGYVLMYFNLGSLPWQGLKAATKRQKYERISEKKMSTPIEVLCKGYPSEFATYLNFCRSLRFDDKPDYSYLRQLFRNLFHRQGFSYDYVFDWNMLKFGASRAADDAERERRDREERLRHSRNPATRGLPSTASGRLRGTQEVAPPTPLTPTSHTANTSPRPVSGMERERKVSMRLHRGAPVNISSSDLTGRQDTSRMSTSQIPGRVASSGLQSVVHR
T2 sequence (P48730 whole entry): as above

With `Fc1ccc(-c2nn3c(c2-c2ccnc4[nH]ncc24)OCC2(CC2)C3)cc1` [Example 457, 2′-(4-Fluorophenyl)-3′-(1H-pyrazolo[3,4-b]pyridin-4-yl)-5′H,7′H-spiro[cyclopropane-1,6′-pyrazolo[5,1-b][1,3]oxazine]], the IC50 on human CSNK1D was 2 nM; in test [1], 1 nM.

With `Fc1ccc(-c2nn3c(c2-c2ccnc4[nH]nc(Cl)c24)OCC2(CC2)C3)nc1` [Example 458, 3′-(3-Chloro-1H-pyrazolo[3,4-b]pyridin-4-yl)-2′-(5-fluoropyridin-2-yl)-5′H,7′H-spiro[cyclopropane-1,6′-pyrazolo[5,1-b][1,3]oxazine]], the IC50 turned out to be 7 nM at human CSNK1D and 1 nM in test [1].

Turning to `Fc1ccc(-c2nn3c(c2-c2c(F)cnc4[nH]ncc24)OCC2(CC2)C3)nc1` [Example 459, 3′-(5-Fluoro-1H-pyrazolo[3,4-b]pyridin-4-yl)-2′-(5-fluoropyridin-2-yl)-5′H,7′H-spiro[cyclopropane-1,6′-pyrazolo[5,1-b][1,3]oxazine]], the 50% inhibitory concentration (IC50) at human CSNK1D turned out to be 80 nM; in test [1], 4 nM.

Turning to `Fc1ccc(-c2nn3c(c2-c2ccnc4[nH]ncc24)OCC2(CC2)C3)nc1` [Example 460, 2′-(5-Fluoropyridin-2-yl)-3′-(1H-pyrazolo[3,4-b]pyridin-4-yl)-5′H,7′H-spiro[cyclopropane-1,6′-pyrazolo[5,1-b][1,3]oxazine]], the values for the IC50 (on human CSNK1D; in test [1]) were 24 nM and 2 nM, respectively.

As for `Cc1cc(-c2c(-c3ccc(F)cc3)nn3c2OCC2(CC2)C3)c2cn[nH]c2n1` [Example 461, 2′-(4-Fluorophenyl)-3′-(6-methyl-1H-pyrazolo[3,4-b]pyridin-4-yl)-5′H,7′H-spiro[cyclopropane-1,6′-pyrazolo[5,1-b][1,3]oxazine]], the IC50 on human CSNK1D is 2 nM; in test [1], 1 nM.

In the case of `Cc1cc(-c2c(-c3ccc(F)cn3)nn3c2OCC2(CC2)C3)c2cn[nH]c2n1` [Example 462, 2′-(5-Fluoropyridin-2-yl)-3′-(6-methyl-1H-pyrazolo[3,4-b]pyridin-4-yl)-5′H,7′H-spiro[cyclopropane-1,6′-pyrazolo[5,1-b][1,3]oxazine]], the values for the IC50 (on human CSNK1D; in test [1]) were 20 nM and 1 nM, respectively.

For the compound `Cc1nc2[nH]ncc2c(-c2c(-c3ccc(F)cn3)nn3c2OCC2(CC2)C3)c1F` [Example 463, 3′-(5-Fluoro-6-methyl-1H-pyrazolo[3,4-b]pyridin-4-yl)-2′-(5-fluoropyridin-2-yl)-5′H,7′H-spiro[cyclopropane-1,6′-pyrazolo[5,1-b][1,3]oxazine]], the 50% inhibitory concentration (IC50) amounted to 20 nM at human CSNK1D and 2 nM in test [1].

Regarding `Cc1cc(-c2c(-c3ccc(F)cn3)nn3c2OCC2(CC2)C3)c2c(Cl)n[nH]c2n1` [Example 464, 3′-(3-Chloro-6-methyl-1H-pyrazolo[3,4-b]pyridin-4-yl)-2′-(5-fluoropyridin-2-yl)-5′H,7′H-spiro[cyclopropane-1,6′-pyrazolo[5,1-b][1,3]oxazine]], the results for the half-maximal inhibitory concentration (IC50) (at human CSNK1D; in test [1]) were 11 nM and 5 nM, respectively.

On to `Cc1nc(-c2c(-c3ccc(F)cc3)nn3c2OCC2(CC2)C3)c2cn[nH]c2n1` [Example 465, 2′-(4-Fluorophenyl)-3′-(6-methyl-1H-pyrazolo[3,4-d]pyrimidin-4-yl)-5′H,7′H-spiro[cyclopropane-1,6′-pyrazolo[5,1-b][1,3]oxazine]], for which the figures for the concentration for half-maximal inhibition (IC50) (on human CSNK1D; in test [1]) were 35 nM and 3 nM, respectively.

As to `Fc1ccc(-c2nn3c(c2-c2ccn4nccc4c2)OCC2(CC2)C3)cc1` [Example 466, 2′-(4-Fluorophenyl)-3′-(pyrazolo[1,5-a]pyridin-5-yl)-5′H,7′H-spiro[cyclopropane-1,6′-pyrazolo[5,1-b][1,3]oxazine]], the half-maximal inhibitory concentration (IC50) at human CSNK1D amounted to 24 nM; in test [1], 12 nM.

Regarding `Fc1ccc(-c2nn3c(c2-c2ccnc4[nH]ncc24)OCC(F)(F)C3)cc1` [Example 467, 6,6-Difluoro-2-(4-fluorophenyl)-3-(1H-pyrazolo[3,4-b]pyridin-4-yl)-5,7-dihydropyrazolo[5,1-b][1,3]oxazine], the concentration for half-maximal inhibition (IC50) on human CSNK1D came to 21 nM; in test [1] it was 2 nM.

The values above are taken from US20230339970A1, “CASEIN KINASE 1 DELTA MODULATORS” (priority 2020, published 2023).
